Results taken from PMC10380083, “Synthesis of Prostate-Specific Membrane Antigen-Targeted Bimodal Conjugates of Cytotoxic Agents and Antiandrogens and Their Comparative Assessment with Monoconjugates” (International Journal of Molecular Sciences, 2023).
Read-outs that look alike come from different tables or passages of the source. *1 amine or outer side, *2 acyl side, *3 side chain or, on linkers, in order; H or OH if unused. Where a SMILES comes first, the peptide text is derived from it. [ ]: non-standard residue; d: D form. The star is where a group is joined. GluureaLys(ε-3-ClBenzyl) = O=C(O)CC[C@H](NC(=O)N[C@@H](CCCCN(Cc1cccc(Cl)c1)*)C(=O)O)C(=O)O; X3 = CC1(C)C(=O)N(c2ccc(C#N)c(C(F)(F)F)c2)C(=S)N1c1ccc(C(=O)*)c(F)c1; Dolaproine = CO[C@@H]([C@@H]1CCCN1)[C@@H](C)C(=O)O; Dil = CC[C@H](C)[C@H](NC)[C@@H](CC(=O)O)OC; X2 = O=C(CCCc1cn(CCCN[*:1])nn1)[*:2]; PABC = O=C(OCc1ccc(N[*:1])cc1)[*:2]; X1 = C[C@@H](N*)[C@@H](O)c1ccccc1; Cit = NC(=O)NCCC[C@H](N)C(=O)O; Suc = O=C(CCC(=O)[*:2])[*:1]; NMeV = CN[C@H](C(=O)O)C(C)C; Ahx = NCCCCCC(=O)O

What was measured:
[1] = test system: PC-3 prostate adenocarcinoma xenograft; conditions: PC-3 xenograft; for tumor volume V±m: i.v. triple injection, single dose 132.3 nM/kg; for Tumor growth inhibition: i.v. 132.3 nM/kg three times; for TGI, did not exceed: i.v. 132.3 nM/kg three times at five-day intervals, male Balb/c nude mice
Protocol: (§1) We carried out in vivo studies of the efficacy of the obtained bimodal conjugates. […] Also, conjugate I (Figure 5) was used as a reference compound. An isotonic (0.9%) sodium chloride solution was used as a negative control. Studies were carried out in xenograft models of 22Rv1 human prostate carcinoma and PC-3 prostate adenocarcinoma in immunodeficient Balb/c nude mice (male).
(§2) Two cell lines were used: human prostate carcinoma 22Rv1 and prostate adenocarcinoma PC-3 (ATCC collection). Cells were cultured in 75 cm^2 vials (Costar, Washington, DC, USA) in RPMI-1640 medium (PanEco, Russia) with the addition of 2 mM L-glutamine (PanEco, Russia) and 10% fetal calf serum (HyClone, Logan, UT, USA) under standard conditions of cultivation (in a humidified atmosphere at 37 °C and 5% CO2). Cells of 6–10 passages were used to inoculate the animals. Cell suspension was prepared with a concentration of 5 × 10^6 cells in 0.05 mL of the 22Rv1 medium and in 0.1 mL of the PC-3 medium. 22Rv1 cells were inoculated into animals in Matrigel (BD Matrigel Basement Membrane Matrix, BD Biosciences, San Jose, CA, USA). Manipulations with Matrigel were performed on a refrigerated plate using precooled materials, tubes and instrumentation. For animal administration, 50 μL of the cell suspension (5 × 10^6 cells) was transferred to a chilled tube containing 50 μL of Matrigel; after mixing, the cellular material (final volume of 100 μL) was injected subcutaneously into the groin area of the animal. To obtain subcutaneous xenograft PC-3, a 5 × 10^6 suspension of tumor cells was inoculated subcutaneously into the inguinal cavity of male mice in a volume of 0.1 mL.
(§3) To study the antitumor efficacy, conjugates were administered intravenously at a dose of 132.3 nM/kg to tumor-bearing mice three times at five-day intervals; administration was started 7−8 days after cell inoculation, and the tumor size was 70−90 mm^3. As a control substance, 0.9% sodium chloride solution was used. Experimental groups included five animals each. […] The mixture was dissolved in DMSO (5% of final solution) and diluted with hemodesum (30% low-molecular-weight polyvinylpyrrolidone (Mw = 8000 ± 200) saline infusion solution). The presence of tumors and their sizes, as well as the body weights of the mice, were recorded every five days during the observation of the animals. The antitumor effect was assessed by comparing the tumor volumes in the experimental and control groups as well as the amount of tumor growth inhibition (TGI, %).
(§4) Tumor volume was calculated using Formula (1):V = d1 × d2 × d3 × 0.52(1) where d1, d2 and d3 are the three mutually perpendicular dimensions of the tumor. […]
(§5) 3.2.1. In vivo evaluation of antitumor efficacy […]
(§6) intravenously at a dose of 132.3 nM/kg to tumor-bearing mice three times at 5-day intervals, the administration was started 7-8 days after cell inoculation to animals, tumor size was 70-90 mm3.
(§7) A 0.9% sodium chloride solution was used as a control substance. The experimental groups […]
(§8) The presence of tumor masses and their size, as well as the body weight of the mice, were recorded every 5 days during observation. In accordance with humane principles, animals were euthanized by placing the mice in a CO2 inhalation chamber (ZOONLAB GmbH, Germany).

[2] = test system: 22Rv1 human prostate carcinoma xenograft; conditions: 22Rv1 xenograft; for tumor volume V±m: i.v. triple injection, single dose 132.3 nM/kg; for Tumor growth inhibition: i.v. 132.3 nM/kg three times
Protocol: as §1, §2, §3, §4, §5, §6, §7, §8

[3] = Body weight, general condition and mortality in the antitumor efficacy study; conditions: i.v. 132.3 nM/kg x3
Protocol: Animal body weight data are presented in Table S2 in the electronic supplementary materials.
as §3, with “%). […]” for “%).”
as §5, §6, §7, §8
Conjugate Method of injection Dose Number of animals 22Rv1 PC-3 […]
3.4. In vivo Efficacy Evaluation
Days after tumor implantation / mass± error, g
Conjugate 7 day 12 day 17 day […]
injection) injection) injection)
Human prostate carcinoma 22Rv1
Human prostate adenocarcinoma PC-3
Table S3. Tumor growth dynamics of 22Rv1 and PC-3 in mice with intravenous triple injection of […]
ate Days after tumor implantation / V±m, mm3

[4] = 7 day after tumor implantation (1st injection)
[5] = 12 day after tumor implantation (2nd injection)
[6] = 17 day after tumor implantation (3rd injection)
[7] = 22 day after tumor implantation
[8] = 27 day after tumor implantation
[9] = 33 day after tumor implantation
[10] = 37 day after tumor implantation
[11] = days after the start of treatment: 1
[12] = days after the start of treatment: 5
[13] = days after the start of treatment: 10
[14] = days after the start of treatment: 16
[15] = days after the start of treatment: 20
[16] = 22Rv1 xenograft mice, 7 day after tumor implantation (1st injection)
[17] = 22Rv1 xenograft mice, 12 day after tumor implantation (2nd injection)
[18] = 22Rv1 xenograft mice, 17 day after tumor implantation (3rd injection)
[19] = 22Rv1 xenograft mice, 22 day after tumor implantation
[20] = 22Rv1 xenograft mice, 27 day after tumor implantation
[21] = 22Rv1 xenograft mice, 33 day after tumor implantation
[22] = 22Rv1 xenograft mice, 37 day after tumor implantation
[23] = PC-3 xenograft mice, 7 day after tumor implantation (1st injection)
[24] = PC-3 xenograft mice, 12 day after tumor implantation (2nd injection)
[25] = PC-3 xenograft mice, 17 day after tumor implantation (3rd injection)
[26] = PC-3 xenograft mice, 22 day after tumor implantation
[27] = PC-3 xenograft mice, 27 day after tumor implantation
[28] = PC-3 xenograft mice, 33 day after tumor implantation
[29] = PC-3 xenograft mice, 37 day after tumor implantation

Row | Compound | tumor volume V±m [1, 4] | tumor volume V±m [1, 5] | tumor volume V±m [1, 8] | tumor volume V±m [1, 9] | tumor volume V±m [1, 10] | Tumor growth inhibition [1, 11] | Tumor growth inhibition [1, 12] | Tumor growth inhibition [1, 13] | Tumor growth inhibition [1, 14] | Tumor growth inhibition [1, 15] | TGI, did not exceed [1] | tumor volume V±m [2, 4] | tumor volume V±m [2, 5] | tumor volume V±m [2, 6] | tumor volume V±m [2, 7] | tumor volume V±m [2, 9] | tumor volume V±m [2, 10] | Tumor growth inhibition [2, 11] | Tumor growth inhibition [2, 12] | Tumor growth inhibition [2, 13] | other results
1 | CC[C@H](C)[C@@H]([C@@H](CC(=O)N1CCC[C@H]1[C@H](OC)[C@@H](C)C(=O)N[C@H](C)[C@@H](O)c1ccccc1)OC)N(C)C(=O)[C@@H](NC(=O)[C@@H](NC)C(C)C)C(C)C [MMAE, Monomethyl Auristatin E, reference compound] (H-[NMeV]V[Dil][Dolaproine]-X1) | 85.9±8.7 mm3 | 117.9 mm3 | 592.6 mm3 | 1014.3 mm3 | 1679.9 mm3 | 29.8% | 32.1% | 29.5% | 25.4% | 38.4% | ≤ 38.4% | 73.7±14.3 mm3 | 93.6±5.7 mm3 | 125.3 mm3 | 211.7 mm3 | 749.3 mm3 | 1402.3 mm3 | 41.5% | 60.1% | 64.7% | tumor volume V±m [1, 6]: 211.3 mm3; tumor volume V±m [1, 7]: 330.9 mm3; tumor volume V±m [2, 8]: 388.2 mm3; Tumor growth inhibition [2, 14]: 63.0%; Tumor growth inhibition [2, 15]: 51.0%; body weight, mass ± error [3, 16]: 24.0 ± 1.3 g; body weight, mass ± error [3, 17]: 23.7 ± 1.3 g; body weight, mass ± error [3, 18]: 23.4 ± 1.3 g; body weight, mass ± error [3, 19]: 23.5 ± 1.3 g; body weight, mass ± error [3, 20]: 23.8 ± 1.3 g; body weight, mass ± error [3, 21]: 24.0 ± 1.3 g; body weight, mass ± error [3, 22]: 24.2 ± 1.4 g; body weight, mass ± error [3, 23]: 22.4 ± 1.2 g; body weight, mass ± error [3, 24]: 22.7 ± 1.5 g; body weight, mass ± error [3, 25]: 22.4 ± 1.4 g; body weight, mass ± error [3, 26]: 23.0 ± 1.4 g; body weight, mass ± error [3, 27]: 23.1 ± 1.3 g; body weight, mass ± error [3, 28]: 23.2 ± 1.2 g; body weight, mass ± error [3, 29]: 23.3 ± 1.2 g
2 | CC[C@H](C)[C@@H]([C@@H](CC(=O)N1CCC[C@H]1[C@H](OC)[C@@H](C)C(=O)N[C@H](C)[C@@H](O)c1ccccc1)OC)N(C)C(=O)[C@@H](NC(=O)[C@H](C(C)C)N(C)C(=O)OCc1ccc(NC(=O)[C@H](CCCNC(N)=O)NC(=O)[C@@H](NC(=O)CCCc2cn(CCCNC(=O)[C@H](CCCCNC(=O)c3ccc(N4C(=S)N(c5ccc(C#N)c(C(F)(F)F)c5)C(=O)C4(C)C)cc3F)NC(=O)[C@H](Cc3ccc(O)cc3)NC(=O)[C@H](Cc3ccccc3)NC(=O)CCC(=O)NCCCCCC(=O)N(CCCC[C@H](NC(=O)N[C@@H](CCC(=O)O)C(=O)O)C(=O)O)Cc3cccc(Cl)c3)nn2)C(C)C)cc1)C(C)C [compound 15] ({GluureaLys(ε-3-ClBenzyl)-Ahx-Suc}-FYK(X3)[X2]V[Cit][PABC][NMeV]V[Dil][Dolaproine]-X1) | 83.1±6.8 mm3 | 117.6 mm3 | 534.3 mm3 | 819.8 mm3 | 1318.4 mm3 | 20.5% | 18.5% | 36.5% | 39.7% | 51.7% | ≤ 51.7% | 73.3±8.8 mm3 | 64.7±15.3 mm3 | 76.1±46.5 mm3 | 171.6 mm3 | 650.1 mm3 | 988.7 mm3 | 64.5% | 67.6% | 71.3% | Tumor growth inhibition [2, 14]: 67.9%; Tumor growth inhibition [2, 15]: 65.4%; body weight, mass ± error [3, 16]: 25.2 ± 1.2 g; body weight, mass ± error [3, 17]: 25.0 ± 1.2 g; body weight, mass ± error [3, 18]: 25.0 ± 1.2 g; body weight, mass ± error [3, 19]: 25.2 ± 1.3 g; body weight, mass ± error [3, 20]: 25.1 ± 1.3 g; body weight, mass ± error [3, 21]: 25.2 ± 1.3 g; body weight, mass ± error [3, 22]: 25.5 ± 1.5 g; body weight, mass ± error [3, 23]: 23.9 ± 2.1 g; body weight, mass ± error [3, 24]: 23.8 ± 2.1 g; body weight, mass ± error [3, 25]: 24.0 ± 2.2 g; body weight, mass ± error [3, 26]: 24.4 ± 2.3 g; body weight, mass ± error [3, 27]: 24.8 ± 2.1 g; body weight, mass ± error [3, 28]: 24.9 ± 1.8 g; body weight, mass ± error [3, 29]: 25.1 ± 1.9 g
